Experimental data from patent publication US11440870B2, “Cannabidiolic acid esters compositions and uses thereof” (Yissum Research Development Company of the Hebrew …, priority 2017, dated 2022).

System: anxiety-like responding in rats
Assay: Light-dark box emergence test after foot shock stress (anxiety-like responding)
Assay type: in vivo, male Sprague-Dawley rats
Details: WAY100635 i.p. 15 min before VEH; P<0.05
Source text: Animal procedures complied with the Canadian Council on Animal Care, and the protocols were approved by the Institutional Animal Care Committee at University of Guelph. Animal studies are reported in compliance with the ARRIVE guidelines (Kilkenny et al., 2010; McGrath and Lilley, 2015). A total of 200 näive male Sprague-Dawley rats, obtained from Charles River Laboratories (St Constant, Quebec), were used for all in vivo studies. Rats were individually housed (for acute nausea studies) or pair-housed [for anticipatory nausea and light-dark emergence studies] in home cages made of opaque white plastic (48×26×20 cm), containing bed-o-cob bedding from Harlan Laboratories, Inc. (Mississauga, Ontario), a brown paper towel, and Crinkl'Nest™ from The Andersons, Inc. (Maumee, Ohio). Additionally, in the home cage, rats were provided with a soft white paper container that was 14 cm long and 12 cm in diameter. All rats were subjected to an ambient temperature of 21° C. and a 12/12 h light-dark schedule (lights off at 07:00 h) and maintained on food (Highland Rat Chow [8640]) and water ad libitum. For the acute and anticipatory nausea studies, their body weights ranged from 263 to 329 g on the day of conditioning. For the light-dark emergence studies, their body weights ranged from 320 to 387 g on the day of test.
For the in vivo experiment 3, anxiolytic-like responding was evaluated using the light-dark emergence apparatus, which consisted of an opaque white plastic rectangular box that was divided into two compartments: a small (25 cm wide×20.5 cm long×20.5 cm high) enclosed dark box built of opaque black plastic with a door (8 cm wide×10 cm high) leading to a larger (39.5 cm long×25 cm wide) open lit box. The open lit box was illuminated by one lamp (with a 60 W bulb, 180 lux in the light chamber) positioned 115 cm above the center of the lit box. A video camera was mounted over the top of the light-dark box, and the video tapes were analyzed by the Ethovision software (Noldus Information Technology, Leesburg, Va., USA) for the duration of time spent in the light box for the 5 min test. For the foot shock (FS) session, the rats were placed in sound attenuating MED Associates fear conditioning chambers (St. Albans, Vt., USA). The 6 min FS session consisted of six 0.8 mA foot shocks delivered 1 min apart. Each 0.5 s shock was preceded by a 30 s auditory tone (90 Db, 5000 Hz) as described by Bluett et al. (2014).
The effect of CBDA and HU-580 on anxiety-like responding was evaluated using the light-dark box emergence test following either foot shock stress or no foot shock (No FS) stress. […]

SMILES: COc1ccccc1N1CCN(CCN(C(=O)C2CCCCC2)c2ccccn2)CC1 [WAY100635, reference compound]
- Time spent in the light box after foot shock (FS) stress vs No FS: spent less time in the light box following FS stress than following No FS stress
